Experimental data taken from patent US20240385174A1, “METHOD FOR SCREENING SUBSTANCE THAT SUPPRESSES 4-METHYLACETOPHENONE ODOR, AND METHOD FOR SUPPRESSING 4-METHYL ACETOPHENONE ODOR” (AJINOMOTO CO., INC., priority 2022, published 2024).

Key:
[1] = biological target: T1, OR5P3 (Homo sapiens, UniProt Q8WZ94); assay: Screening for OR5P3 antagonist (luciferase assay, 2-heptanone as receptor-activating substance); type: cell-based; details: inhibition of OR5P3 response to 2-heptanone (1000 μM); test substance 0.3-100 μM; HEK293T cells expressing OR5P3
T1 construct: host or cells: HEK293T
T1 sequence (Q8WZ94 with tags, fused parts or gaps): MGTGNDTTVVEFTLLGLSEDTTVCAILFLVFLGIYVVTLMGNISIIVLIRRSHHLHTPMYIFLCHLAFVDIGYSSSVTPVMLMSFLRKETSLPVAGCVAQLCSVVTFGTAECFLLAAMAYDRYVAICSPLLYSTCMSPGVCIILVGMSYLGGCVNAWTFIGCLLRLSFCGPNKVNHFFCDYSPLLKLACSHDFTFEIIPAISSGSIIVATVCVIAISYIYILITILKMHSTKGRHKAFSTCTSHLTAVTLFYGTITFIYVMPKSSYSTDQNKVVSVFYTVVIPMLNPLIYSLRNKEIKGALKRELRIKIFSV
Description: The expression vector mixture was allowed to stand for 20 minutes in a laminar flow cabinet and then added to HEK293T cells inoculated in 10-cm petri dishes the day before (2.5 to 3.5×10^6 cells/10-cm petri dish). After incubation for 5 hours in an incubator maintained at 37° C. and 5% CO2, the HEK293T cells were inoculated into each well of a 96-well plate (BD) in a volume of 100 μl (2.5×10^6 cells/ml), and cultured overnight in an incubator maintained at 37° C. and 5% CO2. […] As a control, the same procedure was performed by using the empty vector Rho-pME18S instead of the expression vector for human olfactory receptor in the expression vector mixture to obtain culture of the HEK293T cells transfected with the empty vector Rho-pME18S (hereinafter also referred to as the “control cells”).
The medium was removed from the culture of HEK293T cells expressing OR5P3 obtained in the section <1-2> mentioned above, and 60 μl of a mixed solution of a test substance and 2-heptanone (containing 100 μM test substance and 1000 μM 2-heptanone) or 60 μl of a 2-heptanone solution (containing 1000 μM 2-heptanone) was added to obtain a reaction solution. The solutions were prepared by dissolving the substances in CD293 (Life Technologies, Inc.). The cells were incubated in a CO2 incubator at 37° C. for 3 hours so that the firefly luciferase gene was sufficiently expressed in the cells. The value of luminescence derived from firefly luciferase in the cells was measured and designated as “Luc value”. The value of luminescence derived from firefly luciferase was measured by using Dual-Go™ Luciferase Assay System (Promega) according to the operation manual of the product.
Receptor response inhibition ratio of the test substance was calculated as follows. The Luc value (Y) in the cells not stimulated with 2-heptanone was subtracted from the Luc value (X) in the cells stimulated with 2-heptanone alone. Similarly, the Luc value (Y) in the cells not stimulated with 2-heptanone was subtracted from the Luc value (Z) in the cells stimulated with a mixture of 2-heptanone and the test substance. The receptor response inhibition ratio of the test substance was calculated in accordance with the following equation using the increase in value of luminescence caused by stimulation with 2-heptanone alone (X Y) as the standard. The experiment was performed in duplicate, and an average value was obtained.
The concentration of the test substance was 0.3, 1, 3, 10, 30, or 100 μM. The response of the receptor to 2-heptanone (1000 μM) in the presence of each concentration of the test substance was measured and represented as the relative response intensity based on the response intensity of the receptor to 2-heptanone (1000 μM) observed in the absence of the test substance, which was taken as 100%.

[2] = Test Example 4: sensory evaluation of lemon-derived degradation odor-masking effect (single compounds); type: in vivo; details: score 0 to 10 (0 normal sample, 5 normal:degraded 1:1, 10 degraded sample); lemon beverage stored at 44° C. for 2 weeks; added ppm: decadienal 0.002, nonadienal 0.002, 2-methylbenzenethiol 0.165, S-(2-methyl-3-furyl) ethanethioate 0.120, piperine 6.667, nootkatone 10.000, sclareol 16.667; average of 2 experts
Description: A commercially available lemon beverage (Chelate Lemon W Lemon (Pokka Sapporo), stored under refrigeration after purchased) was used as a normal sample. This lemon beverage was stored at 44° C. for 2 weeks to generate a lemon-derived degradation odor and was used as a degraded sample. Evaluation samples were prepared by adding each of the compounds shown in Table 6 to the degraded sample at the concentrations shown in the same.
The lemon-derived degradation odor intensity was scored as 0 to 10 on the basis of the following evaluation criteria. […] On the basis of the lemon-derived degradation odor intensity, the lemon-derived degradation odor-masking effect was evaluated.
• 0: Lemon-derived degradation odor intensity of the normal sample • 5: Lemon-derived degradation odor intensity of a mixture of the normal sample and degraded sample (normal sample:degraded sample=1:1) • 10: Lemon-derived degradation odor intensity of the degraded sample

[3] = Test Example 3: sensory evaluation of citral-derived degradation odor-masking effect; type: in vivo; details: score 0 to 10 (0 normal sample, 5 normal:degraded 1:1, 10 degraded sample); 100 ppm citral aqueous solution stored at 44° C. for two weeks; added ppm: decadienal 0.002, nonadienal 0.002, 2-methylbenzenethiol 0.165, S-(2-methyl-3-furyl) ethanethioate 0.120, piperine 6.667, nootkatone 10.000, sclareol 16.667; average of two experts
Description: A 100 ppm citral aqueous solution (stored under refrigeration after preparation) was used as a normal sample. This solution was stored at 44° C. for two weeks to generate a degraded odor derived from citral, and was used as a degraded sample. Evaluation samples were prepared by adding each of the compounds shown in Table 5 to the degraded sample at the concentrations shown in the same.
The citral-derived degradation odor intensity was scored as 0 to 10 on the basis of the following evaluation criteria. […] On the basis of the citral-derived degradation odor intensity, the citral-derived degradation odor-masking effect was evaluated.
• 0: Citral-derived degradation odor intensity of the normal sample • 5: Citral-derived degradation odor intensity of a mixture of the normal sample and degraded sample (normal sample:degraded sample=1:1) • 10: Citral-derived degradation odor intensity of the degraded sample

[4] = biological target: T2, olfactory receptor OR5P3 (Homo sapiens, UniProt Q8WZ94); assay: Luciferase reporter gene assay: response of human olfactory receptors to 4-methylacetophenone; type: cell-based
T2 construct: host or cells: HEK293T
T2 sequence (Q8WZ94 with tags, fused parts or gaps): T1 sequence (Q8WZ94 with tags, fused parts or gaps)
Text: The genes for the 352 types of human olfactory receptors were purchased from TrueClone cDNA Clone Collection (OriGene). Fragments for subcloning of the 352 types of human olfactory receptor genes were amplified by PCR using primers designed on the basis of sequence information available in GenBank and the purchased human olfactory receptor genes as the templates. Each of the amplified fragments for subcloning of the genes was subcloned into the Rho-pME18S vector (K. Kajiya et al., Journal of Neuroscience. 15 Aug. 2001, 21 (16) 6018-6025) downstream of the Rho tag sequence using the EcoRI and XhoI sites to obtain 352 types of expression vectors for human olfactory receptors.
HEK293T cells expressing each of the 352 types of olfactory receptors were prepared by the following procedure. […]
The olfactory receptors expressed by HEK293T cells conjugate with Golf to activate adenylate cyclase, and thereby increase the amount of intracellular cAMP. In this example, the olfactory receptor response was measured by using a luciferase reporter gene assay, in which the increase in intracellular cAMP amount is monitored as an increase in firefly luciferase-derived luminescence. […] In addition, value of the luminescence derived from Renilla luciferase was used as an internal standard to correct errors caused by differences in gene transfer efficiency and cell number in each well. […]

| Compound | IC50 [1] [µM] | Evaluation score (lemon-derived degradation odor intensity) [2] | Evaluation score (citral-derived degradation odor intensity) [3] | other results |
| --- | --- | --- | --- | --- |
| CC(C)CC(O)Cc1ccccc1 (centres unmarked) | 67 |  |  |  |
| CCC=CC=CC=O [2,4-Heptadienal] | 78 |  |  |  |
| Cc1ccccc1S [2-Methylbenzenethiol] | 46 | 8 | 8 |  |
| CC=C(C=O)c1ccccc1 [2-Phenyl-2-butenal] | 65 |  |  |  |
| SCCc1ccccc1 [2-Phenylethanethiol] | 17 |  |  |  |
| SCc1cccs1 [2-Thiophenemethanethiol] | 39 |  |  |  |
| Sc1cccs1 [2-Thiophenethiol] | 76 |  |  |  |
| CC(=O)c1ccc(C)cc1 [4-methylacetophenone] |  |  |  | response of olfactory receptor OR5P3 to 4-methylacetophenone (olfactory receptor activity) ([4]; 300 μM and 30 μM 4-methylacetophenone, 352 types of human olfactory receptors expressed in HEK293T cells, FIGS. 1 and 2): OR5P3 showed a response; 4-methylacetophenone concentration dependency of the response of OR5P3 (fold increase) ([4]; HEK293T cells expressing OR5P3, n=3, FIG. 3): concentration-dependent manner |
| CC=Cc1ccc(OCc2ccccc2)c(OC)c1 [Benzyl isoeugenol] | 49 |  |  |  |
| S=C=NCc1ccccc1 [Benzyl isothiocyanate] | 19 |  |  |  |
| c1coc(CSCc2ccco2)c1 [Difurfuryl sulfide] | 39 |  |  |  |
| CCCCCCCCC(=O)NCc1ccc(O)c(OC)c1 [N-Vanillylnonanamide] | 2 |  |  |  |
| C=C(C)[C@@H]1CCC2=CC(=O)C[C@@H](C)[C@]2(C)C1 [Nootkatone] | 8.1 | 6 | 5.5 |  |
| O=C(/C=C/C=C/c1ccc2c(c1)OCO2)N1CCCCC1 [Piperine] |  | 8 | 6 |  |
| CC(=O)Sc1ccoc1C [S-(2-Methyl-3-furyl) ethanethioate] | 45 | 6 | 6 |  |
| C=C[C@](C)(O)CC[C@@H]1[C@@]2(C)CCCC(C)(C)[C@@H]2CC[C@@]1(C)O [Sclareol] |  | 6 | 5.5 |  |
| CCCCC/C=C/C=C/C=O [trans, trans-2,4-Decadienal] |  | 6 | 5 |  |
| CCCC/C=C/C=C/C=O [trans, trans-2,4-Nonadienal] |  | 7.5 | 7 |  |
